# Laboratory results taken from paper doi:10.1101/2025.10.10.681657 (bioRxiv, 2025).
# “Also recorded” adds a separate entry of the source.
# B1: U4/U6 snRNA 92 nt construct (structured_RNA)
# RNA: GGCCUUAUGCACGGGAAAUACGCAUAUCAGUGAGGAUUCGUCCGAGAUUGUGUUUUUGCUGGUGUAAAUCAGCAGUUCCCCUGCAUAAGGCU
# How the values were obtained:
# [1] = target: U4/U6 snRNA construct (92 nt); assay: SPR binding to U4/U6 snRNA construct (92 nt); design: species or system yeast; details: 92 nt RNA, steady-state fit; >100 = signal appeared at 100 μM but failed to fit
# Experimental: (§1) SPR experiments were carried out using an SPR optical biosensor (BIAcore 3000, Cytiva, USA) based on reported methods with minor modifications.[35] To avoid RNA degradation during long-time injections, the whole microfluidic system was washed by priming 50% RNase Zap buffer and RNase-free water one day before the experiments. Then, by using running buffer (1xPBS, pH7.4, 0.005% Tween 20, 5% DMSO) at a flow rate of 5 μL/min, the binding assays were performed. In brief, a CM5 chip surface coated with carboxylated dextran was activated by standard EDC/NHS amine-coupling protocol and then conjugated with streptavidin (200 ng/mL in 10 mM sodium acetate buffer, pH 4.5) for 30 min, resulting in 4000~6000 response units (RUs) signal. After streptavidin conjugation, the surface was deactivated (1 M ethanolamine, pH 8.5) for 10 min and regenerated (10 mM NaOH) for 2 min to remove unbound SA. Then, the folded U4/U6 RNA with biotin-label at 5′ end was prepared (according to the above-mentioned method) at 5 μM and injected in flow-cell (Fc) 2 for 30 min while Fc1 was kept blank as a reference. Then, the system continued flowing the running buffer until the baseline was stable before future steps.
# To detect binding between small molecules and U4/U6 snRNA, a 50 μL compound solution was applied to both Fc1 and Fc2 channels simultaneously at a higher flow rate (25 μL/min). The binding curve contains 120 s association and 200 s dissociation. A pulse of 10 mM NaOH injection was used for regeneration if needed. To measure the dissociation constant (KD), titrations of compound solutions with a serial dilution were applied. The KD value was then calculated by fitting the binding curves based on a steady-state model in BIAevaluation 4.0 software and plotted in GraphPad Prism 9.
# [2] = system: K-turn-containing RNAs (92 nt, 68 nt, and 32 nt); assay: SMM screening, K-turn-containing RNAs; type: binding, yeast; details: Z-score cutoff 3
# Experimental: (§2) For high-throughput screening using SMM, the microarray slides were prepared based on previously reported methods using a robotic microarray printer (Arrayjet, UK).[34] Each slide contained ~7,000 compounds with duplicate spots of each sample. To perform screening, the SMM slide surface was first blocked with 500 nM yeast total tRNA (Invitrogen) in screening buffer (1xPBS, pH 7.4, 0.005% Tween 20) for 2 h prior to target RNA incubation. Then, the 5′-Cy5-labeled U4/U6 RNA construct was folded as above described, followed by buffer exchange to screening buffer. After annealing, the RNA was diluted to 50 nM in screening buffer and incubated with the microarray for another 2 h. After that, the glass slide was gently washed with PBST, PBS, and ddH2O three times in each buffer solution and dried in a centrifuge at 1,700 g for 2 min. Finally, the microarray was imaged with an InnoScan 1100 AL fluorescence scanner (Innopsys, France) at 635 nm and the hits were identified based on the quantified fluorescent intensity of each spot.
# [3] = system: 79 nt RNA (lacking the K-turn); assay: SMM screening, 79 nt RNA; type: binding, yeast; details: Z-score cutoff 3
# Experimental: as §2
# [4] = system: U4U6 RNA for SHAPE-MaP (T7 transcript of Template) (RNA, junction) GGGCCUUCGGGCCAAGGCCUUAUGCACGGGAAAUACGCAUAUCAGUGAGGAUUCGUCCGAGAUUGUGUUUUUGCUGGUGUAAAUCAGCAGUUCCCCUGCAUAAGGCUUCGAUCCGGUUCGCCGGAUCCAAAUCGGGCUUCGGUCCGGUUC; assay: SHAPE-MaP (2A3); details: KCl (3.3x folding buffer: 1023 mM); potassium phosphate pH 7.0, EDTA; 100 μM compound
# [5] = system: U4/U6 snRNA construct 92 nt (WT, No. 1) (RNA, junction) GGCCUUAUGCACGGGAAAUACGCAUAUCAGUGAGGAUUCGUCCGAGAUUGUGUUUUUGCUGGUGUAAAUCAGCAGUUCCCCUGCAUAAGGCU; assay: SPR steady state; details: 1x PBS; pH 7.4, 0.005% Tween 20, 5% DMSO
# [6] = system: U4/U6 snRNA construct 92 nt (WT, No. 1), unlabeled (RNA, junction) GGCCUUAUGCACGGGAAAUACGCAUAUCAGUGAGGAUUCGUCCGAGAUUGUGUUUUUGCUGGUGUAAAUCAGCAGUUCCCCUGCAUAAGGCU; assay: CD melting (260 nm); details: PBS; 5 μM RNA, 100 μM compound, 5% DMSO
# [7] = system: U4/U6 snRNA construct 92 nt (WT, No. 1), Cy5 (RNA, junction) GGCCUUAUGCACGGGAAAUACGCAUAUCAGUGAGGAUUCGUCCGAGAUUGUGUUUUUGCUGGUGUAAAUCAGCAGUUCCCCUGCAUAAGGCU; assay: small molecule microarray; details: 1x PBS; pH 7.4, 0.005% Tween 20; 50 nM RNA; immobilised compound; Z-score cutoff 3
# [8] = system: U4/U6 snRNA construct 79 nt (No. 2, K-turn disrupted), Cy5 (RNA, junction) GGCCUUAUGCACGGGAAAUACGCAUAUCGUAAGAUUGUGUUUUUGCUGGUGUAAAUCAGCAGUUCCCCUGCAUAAGGCU; assay: small molecule microarray; details: 1x PBS; pH 7.4, 0.005% Tween 20; 50 nM RNA; immobilised compound; Z-score cutoff 3
# [9] = system: U4/U6 snRNA construct 68 nt (No. 3), Cy5 (RNA, junction) GGGAAAUACGCAUAUCAGUGAGGAUUCGUCCGAGAUUGUGUUUUUGCUGGUGUAAAUCAGCAGUUCCC; assay: small molecule microarray; details: 1x PBS; pH 7.4, 0.005% Tween 20; 50 nM RNA; immobilised compound; Z-score cutoff 3
# [10] = system: U4/U6 snRNA construct 32 nt (No. 4), Cy5 (RNA, hairpin) CGCAUAUCAGUGAGGAUUCGUCCGAGAUUGUG; assay: small molecule microarray; details: 1x PBS; pH 7.4, 0.005% Tween 20; 50 nM RNA; immobilised compound; Z-score cutoff 3
# [11] = system: U4/U6 snRNA construct 79 nt (No. 2, K-turn disrupted) (RNA, junction) GGCCUUAUGCACGGGAAAUACGCAUAUCGUAAGAUUGUGUUUUUGCUGGUGUAAAUCAGCAGUUCCCCUGCAUAAGGCU; assay: SPR; details: 1x PBS; pH 7.4, 0.005% Tween 20, 5% DMSO; no binding up to 50 μM
# [12] = system: U4/U6 snRNA construct 92 nt (WT, No. 1), Cy5 (RNA, junction) GGCCUUAUGCACGGGAAAUACGCAUAUCAGUGAGGAUUCGUCCGAGAUUGUGUUUUUGCUGGUGUAAAUCAGCAGUUCCCCUGCAUAAGGCU; assay: EMSA; details: 150 mM NaCl; 20 mM Tris-Cl pH 7.6, 0.1% Triton X-100, 2 mM DTT; 1 μM Snu13 protein displaced
# [13] = system: U4/U6 79-nt snRNA construct; assay: SPR binding test with 79 nt RNA lacking the K-turn; design: species or system yeast; details: 79 nt RNA that disrupts the 5′ SL; until 50 μM
# Experimental: as §1, with “Then, the folded U4/U6 RNA with biotin-label at 5′ end was prepared (according to the above-mentioned method) at 5 μM and injected in flow-cell (Fc) 2 for 30 min while Fc1 was kept blank as a reference. Then, the system continued flowing the running buffer until the baseline was stable before future steps.” left out
# To detect binding between small molecules and U4/U6 snRNA, a 50 μL compound solution was applied to both Fc1 and Fc2 channels simultaneously at a higher flow rate (25 μL/min). […] The KD value was then calculated by fitting the binding curves based on a steady-state model in BIAevaluation 4.0 software and plotted in GraphPad Prism 9.
# [14] = target: U4/U6 92-nt RNA construct; assay: MST binding to U4/U6 92-nt RNA; design: species or system yeast; details: 50 nM Cy5-labeled 92-nt RNA
# Experimental: (§3) MST experiments were conducted using a Monolith NT.115 system (NanoTemper, Germany) as described previously.[36] 5′-Cy5-labeled U4/U6 RNA was folded as above-mentioned and diluted to 100 nM (2x) in a working buffer. For RNA-small molecule interactions, compounds were prepared in the running buffer (with 10% DMSO) and mixed with RNA in a 1:1 (v/v) ratio, resulting in 50 nM RNA and 5% DMSO in the final solution. Then, MST scanning was performed in triplicate using a red LED channel to obtain the binding signals. Binding affinity (KD) was determined by fitting the concentration-dependent curve in the T-jump region according to the 1:1 Langmuir binding model (MO.Affinity Analysis v2.3).
# [15] = system: Snu13-U4/U6 RNA interaction; assay: KD shift assay by MST (protein-RNA inhibition); type: binding, yeast; details: 10 μM compound vs no compound
# Experimental: as §3
# For the protein-RNA inhibition assay, Snu13 protein was prepared in the running buffer (10 mM HEPES, pH 7.4, 150 mM NaCl, and 0.005% Tween 20) at different concentrations ranging from 0 μM to 5 μM. Meanwhile, a compound at a designated concentration was added to the annealed RNA solution. Then, the test solutions were prepared by 1:1 (v/v) mixing the protein and RNA-small molecule samples, followed by the standard MST procedure mentioned above.
# [16] = system: Snu13-U4/U6 RNA interaction; assay: EMSA of Snu13-U4/U6 RNA complex; type: biochemical, yeast; details: 1 μM Snu13, compound 0.5 to 20 μM, gel band quantification; read-out: IC50 (RNA-protein complex formation)
# Experimental: The 5′-end Cy5 labeled U4U6 RNA in 11.25 mM KPO4 pH 7.0, 310 mM KCl, and 5 mM EDTA was folded based on the above-mentioned method. The folded RNA was incubated with 1 μM Snu13 protein in the buffer containing 20 mM Tris-Cl pH 7.6, 150 mM NaCl, and 0.1% of Triton X-100 and 2 mM DTT for 30 min at room temperature. Then the compound (0.5 μM to 20 μM) was added to the samples and incubated at room temperature for 15 min. The samples were loaded into the 8% native PAGE gel and visualized by AMERSHAM TYPHOON Biomolecular Imager. Image J software was used for image processing. RNA-protein complex formation in the presence of increasing concentration of compound 22 was calculated by quantifying the higher molecular weight band intensity and normalized to the band intensity of RNA-protein complex in the absence of compound. Values reported are the average of three replicates. The half-maximal inhibitory concentration (IC50) was determined by fitting the data in inhibitor dose–response curves in GraphPad Prism 9. Quantitative data were presented as the mean ± SEM.
# [17] = system: U4/U6 snRNA construct 92 nt (WT, No. 1), Cy5 (RNA, junction) GGCCUUAUGCACGGGAAAUACGCAUAUCAGUGAGGAUUCGUCCGAGAUUGUGUUUUUGCUGGUGUAAAUCAGCAGUUCCCCUGCAUAAGGCU; assay: MST (T-jump, 1:1 fit); details: running buffer, 5% DMSO, 50 nM RNA
# [18] = system: U4U6 RNA for SHAPE-MaP (T7 transcript of Template) (RNA, junction) GGGCCUUCGGGCCAAGGCCUUAUGCACGGGAAAUACGCAUAUCAGUGAGGAUUCGUCCGAGAUUGUGUUUUUGCUGGUGUAAAUCAGCAGUUCCCCUGCAUAAGGCUUCGAUCCGGUUCGCCGGAUCCAAAUCGGGCUUCGGUCCGGUUC; assay: SHAPE-MaP / deltaSHAPE (2A3); details: KCl (3.3x folding buffer: 1023 mM); potassium phosphate pH 7.0, EDTA; 100 μM compound
# [19] = system: NHP2L1 (Snu13) and U4 5′ SL; design: method as in PMID 28985478; details: cited from earlier work
# Snu13 = target: T1, Snu13 (yeast (species ), UniProt P39990 1-126); assay: MST; no compound; 50 nM RNA; MST: 10 mM HEPES pH 7.4, 150 mM NaCl, 0.005% Tween 20, 50 nM RNA (protein buffer, mixed 1:1 with RNA); EMSA: 20 mM Tris-Cl pH 7.6, 150 mM NaCl, 0.1% Triton X-100, 2 mM DTT, room temperature, 8% native PAGE; RNA folded in 11.25 mM K-phosphate pH 7.0, 310 mM KCl, 5 mM EDTA; details: label: 5'-Cy5; folded single strand; three-way junction, U4 5' stem-loop with 5x2 internal loop (K-turn)
# T1 sequence: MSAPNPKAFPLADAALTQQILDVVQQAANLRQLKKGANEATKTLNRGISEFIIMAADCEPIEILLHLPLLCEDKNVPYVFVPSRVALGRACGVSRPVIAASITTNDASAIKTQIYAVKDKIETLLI
molecule,measurement,setting,value
Cc1ccc(-n2ncc3c(NCCCN(C)C)ncnc32)cc1Cl [Compound 1],Kd,[1],50.3 ± 1.3 µM
same,SMM binding signal,[2],positive binding signals
same,SMM binding signal,[3],negative results
same,binding,[4],yes
same,KD,[5],50.3 ± 1.3 µM
same,ΔTm,[6],-1.5 ± 0.5 °C
same,binding,[7],yes
same,binding,[8],no
same,binding,[9],yes
same,binding,[10],yes
CCc1nnc(-c2nnc(NCCCN(C)C)c3ccccc23)o1 [Compound 2],Kd,[1],30.5 ± 8.4 µM
same,SMM binding signal,[2],positive binding signals
same,SMM binding signal,[3],negative results
same,KD,[5],30.5 ± 8.4 µM
same,ΔTm,[6],+3.3 ± 0.3 °C
same,binding,[7],yes
same,binding,[8],no
same,binding,[9],yes
same,binding,[10],yes
CN(C)CCNc1nnc(-c2nc(-c3ccc(F)cc3)no2)c2ccccc12 [Compound 22],binding,[11],no
same,IC50,[12],3.2 ± 0.4 µM
same,Kd,[1],3.9 ± 2.2 µM
same,SPR binding to 79 nt RNA,[13],did not show any binding
same,Kd,[14],9.1 ± 0.6 µM
same,fold weaker Snu13 affinity,[15],13 fold
same,IC50,[16],3.2 ± 0.4 µM
same,KD,[5],3.9 ± 2.2 µM
same,KD,[17],9.1 ± 0.6 µM
same,binding,[18],yes
CC[C@@]1(O)C(=O)OCc2c1cc1n(c2=O)Cc2cc3c(CN(C)C)c(O)ccc3nc2-1 [topotecan],effect on NHP2L1-U4 5′ SL interaction,[19],inhibit the interaction; also recorded: disrupts the binding
B1,Kd,Snu13,0.062 ± 0.004 µM
